Measurements published in the NIST ThermoML archive (doi:10.1021/acs.jced.5b00192).
Numbers after ± are expanded uncertainties.

Tests used:
[1] = Molar enthalpy of transition or fusion; conditions: DSC
[2] = DTA

O=C1c2cccc(O)c2C(=O)c2c(O)cccc21 [1,8-dihydroxyanthraquinone]
Molar enthalpy of transition or fusion ([1]; Crystal 1): 4.79 ± 0.179 kcal/mol | Molar enthalpy of transition or fusion ([1]; Crystal 2): 1.19 ± 0.0454 kcal/mol | Normal melting temperature ([2]; Crystal 1): 195.38 ± 1.5 °C | Triple point temperature ([2]; Crystal 2): 435.39 ± 0.86 K
